Patent US3949075A, “Anti-microbial compounds of 2', 4' substituted anilides of substituted nitrosalicylic acid for quadruped animals” (Ferro Corporation, priority 1974, dated 1976)
Where two headings read alike, the source gives them in different places.

What was measured:
Fasciola hepatica = experiment: Test for activity against liver flukes, Fasciola hepatica, in infected sheep; format: in vivo
Method: Test for activity against liver flukes were conducted as follows:
Eggs of Fasciola hepatica were collected from the bile of donor sheep. The eggs were embryonated and snails were infected (the genus Lymnaea serves as intermediate host) to produce Metacercariae which are the infective forms for sheep. Each sheep was infected with 250 metacercariae intraruminally. When the infection became patent in ca. 80 days, egg counts were carried out to determine the degree of worm burden. The liver was processed to recover F. hepatica in the untreated and treated sheep.
(§1) The data of the tables were generated using procedures previously described. The compounds tested are disubstituted and, except for Example 50 which is dibromo, are dichloro. Where the position for the substituents is other than 2' and 4', it is indicated. Under the indicated microorganisms, the values given in this and the following tables, should be read as: percentage of microorganism killed/dose in milligrams per kilogram of body weight. Under "Tolerance", the term "Tol." means "tolerated", "Tox." means "toxic", and "Sym." means "symptoms of toxic reaction", all at the dosage value which follows. It will be appreciated that there is no sharp toxicity end point in determining toxicity to living sheep.

Haemonchus contortus = experiment: Percent of Haemonchus destroyed or expelled in infected sheep (egg count after treatment); format: in vivo, Haemonchus contortus (in sheep); conditions: for inhibition in vivo at 15 mg/kg / inhibition in vivo at 5 mg/kg / inhibition in vivo at 2 mg/kg: Haemonchus contortus; for Effectiveness at 15 mg/kg against Haemonchus: Table VI
Method: Two groups of sheep were used in the tests. One group was used as a non-medicated control, while the other group was treated with the compound under investigation. Helminth-free young lambs were infected with about 10,000 filariform larvae of Haemonchus contortus. In three weeks when the infection became apparent, egg counts were made to determine the density of the worm burden.
The egg count was carried out using the following modified Stoll method. Three grams of sheep feces were taken rectally from each animal and placed in a Stoll flask. To each flask, tap water was added to the top line. The fecal pellets were too hard to break down, the flasks were closed with rubber stoppers and kept in the refrigerator for several hours. The flasks were thoroughly shaken and a 1 ml. sample was drawn from the middle using a wide mouth pipette. This 1 ml. sample was transferred to an 8 ml. plastic tube, to which enough saturated sodium chloride solution was added to reach the rim. The tubes were then centrifuged for 10 minutes at 1500 r.p.m. Then sodium chloride solution was added with a medicine dropper forming a concave miniscus. A cover glass was carefully added and the tubes were kept in a refrigerator for ten to twenty minutes. During that period, the nematode ova flowed upward and adhered to the bottom of the cover glass slip. At the end of the 20-minute period, the cover slip was carefully detached from the miniscus and transferred to a microscopic slide. The ova were then counted under a microscope equipped with 10X ocular and 10X objective lens. Each ovum under the microscope represented 20 ova in the sample.
Animals with sufficiently high egg counts were taken out of the pool and housed in experimental pens. Since the salicylanilides of the present invention are water insoluble, the compounds were first ground using a mortar and pestle and then were placed in a carboxymethyl cellulose solution. The particles were further micronized ultrasonically. The compound was then administered to two or three animals by Oesophageal gavage. Control, untreated animals, received only the carboxymethyl cellulose solution in a similar manner. On the sixth and seventh day after treatment, fecal pellets were taken from the rectum of the control as well as the treated animals and egg counts were made.
(§2) The results of tests on sheep in a manner described, supra, using compounds of the present invention are given in Table 1, Examples 5 through 13. The numbers in the column headed "Haemonchus (15 mg/kg)" refer to the percent of parasites destroyed or expelled when the indicated compound was introduced into the rumen of sheep at a dosage of 15 milligrams per kilogram of body weight. The values under "Tolerance (mg/kg)" refer to the highest test dosage in the milligrams of anthelmintic per kilogram of body weight at which the sheep developed no toxic symptoms. "Tol." is an abbreviation for "tolerated". The symbols R1 and R2 refer to those of Formula I in these and other following examples.
as §1

sheep = experiment: Tolerance / toxicity in sheep; format: in vivo; set-up: key to Tolerance at 100 mg/kg / Tolerance at 50 mg/kg: "toxic" refers to death of sheep resulting from the use of the indicated compound at the indicated dosage; key to Tolerance: Tol.: tolerated; Tox.: toxic; Sym.: symptoms of toxic reaction; conditions: for Tolerance at 50 mg/kg: Tables III and IV
Method: as §2
The importance of the 2',4' substitution on the anilide moiety of Formula I is illustrated by the case of the dichloro substitution as summarized in Table III. […] This has been mentioned briefly hereinabove. As used herein, "toxic" refers to death of sheep resulting from the use of the indicated compound at the indicated dosage.
as §1

[1] = test system: Haemonchus and Fasciola hepatica; experiment: Dual activity against Haemonchus and Fasciola in sheep and therapeutic ratio; format: in vivo; conditions: sheep, 5 mg./kg.
[2] = Fasciola hepatica, read-out: Fasciola hepatica, percentage of microorganism killed
[3] = Fasciola hepatica, sheep, Tables VIII-XI, read-out: Fasciola hepatica, percentage of microorganism killed
[4] = iv, sheep, 15 mg/kg, Tables III and IV, read-out: Effectiveness (%) at 15 mg/kg
[5] = sheep, 5 mg/kg, Tables VIII-XI, read-out: Haemonchus, percentage of microorganism killed
[6] = sheep, 5 mg/kg, Tables III and IV
[7] = Fasciola hepatica, sheep, 15 mg/kg, Tables VIII-XI, read-out: Fasciola hepatica, percentage of microorganism killed
[8] = sheep, 15 mg/kg, Tables VIII-XI, read-out: Haemonchus, percentage of microorganism killed

Question: What does the source list for Cc1c([N+](=O)[O-])cc(C(C)(C)C)c(O)c1C(=O)Nc1cc(Cl)ccc1Cl [Example 24, reference compound]?
Answer: inhibition in vivo at 15 mg/kg (Fasciola hepatica; [2]): 100%; inhibition in vivo at 5 mg/kg (Fasciola hepatica; [3]): 0%; activity against Fasciola, in words (Fasciola hepatica; sheep): no activity; inhibition in vivo at 15 mg/kg (Haemonchus contortus; [4]): 100%; inhibition in vivo at 15 mg/kg (Haemonchus contortus; read-out: Haemonchus, percentage of microorganism killed, sheep, 15 mg/kg, Tables VIII-XI): 100%; inhibition in vivo at 5 mg/kg (Haemonchus contortus; [5]): 61%; activity at 5 mg./kg. (Haemonchus contortus; sheep, 5 mg/kg): 61%; Effectiveness (%) at 5 mg/kg (Haemonchus contortus; [6]): 61%; Tolerance (sheep; 50 mg./kg., Tables VIII-X): Tol.; toxic effects at 50 mg./kg. (sheep; 50 mg/kg): shows toxic effects; Tolerance at 50 mg/kg (sheep; 50 mg/kg): toxic; clinical effectiveness against either parasite, in words [1]: would not be clinically effective against either parasite

Question: Which results are given for Cc1c([N+](=O)[O-])cc(C(C)(C)C)c(O)c1C(=O)Nc1ccc(Cl)c(Cl)c1 [Example 25]?
Answer: inhibition in vivo at 2 mg/kg (Fasciola hepatica; Fasciola hepatica, sheep, 2 mg/kg, Tables VIII-XI, read-out: Fasciola hepatica, percentage of microorganism killed): 0%; inhibition in vivo at 5 mg/kg (Fasciola hepatica; [3]): 95%; inhibition in vivo at 15 mg/kg (Fasciola hepatica; [7]): 100%; inhibition in vivo at 15 mg/kg (Haemonchus contortus; [4]): 100%; inhibition in vivo at 5 mg/kg (Haemonchus contortus; [5]): 20%; inhibition in vivo at 15 mg/kg (Haemonchus contortus; [8]): 100%; Effectiveness (%) at 5 mg/kg (Haemonchus contortus; [6]): 20%; Tolerance (sheep; 15 mg./kg., Tables VIII, X): Tox.; Tolerance (sheep; 50 mg./kg., Tables VIII-X): Tox.; Tolerance at 50 mg/kg (sheep; 50 mg/kg): toxic

Question: Which results are given for Cc1c([N+](=O)[O-])cc(C(C)(C)C)c(O)c1C(=O)Nc1cc(Cl)cc(Cl)c1 [Example 26]?
Answer: inhibition in vivo at 15 mg/kg (Fasciola hepatica; [2]): 100%; inhibition in vivo at 15 mg/kg (Haemonchus contortus; [4]): 67%; inhibition in vivo at 15 mg/kg (Haemonchus contortus; [8]): 67%; effectiveness against the parasites, in words (Haemonchus contortus; sheep): too low to be useful; Tolerance (sheep; 40 mg./kg., Table VIII): Tol.

Question: Cc1ccc(Cl)cc1NC(=O)c1c(C)c([N+](=O)[O-])cc(C(C)(C)C)c1O [Example 29] was tested. Which inhibition in vivo at 15 mg/kg (Haemonchus contortus; [4]) did it give?
Answer: 0%

Question: And the inhibition in vivo at 15 mg/kg (Haemonchus contortus; [8])?
Answer: 0%

Question: What about the “effectiveness against the parasites, in words” value (Haemonchus contortus; sheep) of the same compound?
Answer: ineffective

Question: Which results are given for Cc1cccc(Cl)c1NC(=O)c1c(C)c([N+](=O)[O-])cc(C(C)(C)C)c1O [Example 30]?
Answer: inhibition in vivo at 15 mg/kg (Haemonchus contortus; [4]): 0%; inhibition in vivo at 15 mg/kg (Haemonchus contortus; [8]): 0%; effectiveness against the parasites, in words (Haemonchus contortus; sheep): ineffective

Question: With Cc1c([N+](=O)[O-])cc(C(C)(C)C)c(O)c1C(=O)Nc1cc(Cl)c(Cl)cc1Cl [Example 36] as the compound, how does the “Toxicity (printed in the column Effectiveness at 15 mg/kg against Haemonchus)” value (sheep; 15 mg/kg, Table VI) read?
Answer: Toxic

Question: How did the “Effectiveness at 15 mg/kg against Haemonchus” value (Haemonchus contortus; sheep, 15 mg/kg) turn out when Cc1c([N+](=O)[O-])cc(C(C)(C)C)c(O)c1C(=O)Nc1c(Cl)cc(Cl)cc1Cl [Example 37] was run?
Answer: 73%

Question: For Cc1cc(NC(=O)c2c(C)c([N+](=O)[O-])cc(C(C)(C)C)c2O)c(C)cc1Cl [Example 39], which “Effectiveness at 15 mg/kg against Haemonchus” value (Haemonchus contortus; sheep, 15 mg/kg) is on record?
Answer: 0%

Question: For Cc1c([N+](=O)[O-])cc(C(C)(C)C)c(O)c1C(=O)Nc1ccc(Br)cc1Br [Example 50], which inhibition in vivo at 5 mg/kg (Fasciola hepatica; [3]) is on record?
Answer: 100%

Question: What about the inhibition in vivo at 5 mg/kg (Haemonchus contortus; [5]) of the same compound?
Answer: 99.8%

Question: For Cc1c([N+](=O)[O-])cc(C(C)(C)C)c(O)c1C(=O)Nc1cccc(Cl)c1Cl [Example 60], which inhibition in vivo at 15 mg/kg (Haemonchus contortus; [8]) is on record?
Answer: 14%

Question: With Cc1cc(Br)ccc1NC(=O)c1c(C)c([N+](=O)[O-])cc(C(C)(C)C)c1O [Example 64] as the compound, how does the inhibition in vivo at 5 mg/kg (Fasciola hepatica; [3]) read?
Answer: 100%

Question: And the inhibition in vivo at 2 mg/kg (Haemonchus contortus; read-out: Haemonchus, percentage of microorganism killed, sheep, 2 mg/kg, Tables VIII-XI)?
Answer: 38%

Question: And the inhibition in vivo at 5 mg/kg (Haemonchus contortus; [5])?
Answer: 100%

Question: And the Tolerance (sheep; 50 mg./kg., Tables VIII-X)?
Answer: Tox.

Question: What about the Tolerance (sheep; 50 mg./kg., Tables VIII-X, listed as 65) of the same compound?
Answer: Sym.

Question: What does the source list for Cc1cc(I)ccc1NC(=O)c1c(C)c([N+](=O)[O-])cc(C(C)(C)C)c1O [Example 66]?
Answer: inhibition in vivo at 5 mg/kg (Fasciola hepatica; [3]): 100%; inhibition in vivo at 15 mg/kg (Fasciola hepatica; [7]): 100%; inhibition in vivo at 2 mg/kg (Haemonchus contortus; sheep, 2 mg/kg, Tables VIII-XI, read-out: Haemonchus, percentage of microorganism killed): 13%; inhibition in vivo at 5 mg/kg (Haemonchus contortus; [5]): 88%; Tolerance (sheep; 50 mg./kg., Tables VIII-X): Sym.

Question: With Cc1ccc(NC(=O)c2c(C)c([N+](=O)[O-])cc(C(C)(C)C)c2O)c(Cl)c1 [Example 71] as the compound, how does the inhibition in vivo at 15 mg/kg (Haemonchus contortus; [8]) read?
Answer: 62%

Question: How did the inhibition in vivo at 5 mg/kg (Haemonchus contortus; [5]) turn out when Cc1ccc(NC(=O)c2c(C)c([N+](=O)[O-])cc(C(C)(C)C)c2O)cc1Cl [Example 72] was run?
Answer: 0%

Question: What about the inhibition in vivo at 15 mg/kg (Haemonchus contortus; [8]) of the same compound?
Answer: 80%
